Reference: the supplement of paper PMC12463676, “Small-molecule dissolution of stress granules by redox modulation benefits ALS models” (Nature Chemical Biology, 2025)

Legend:
potassium arsenate = compound: O=[As]([O-])(O)O.[K+] [potassium arsenate]; assay: thermal stability z-score vs DMSO; higher = more thermally stabilized by treatment; conditions: HeLa; arsenate concentration 1 mM
Protocol: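 Cellular thermal proteome profiling in HeLa cells treated with 1 mM arsenate for 1 h (DMSO pretreatment), heated to ten temperatures (37-66.3 °C). Soluble protein was quantified by TMT mass spectrometry relative to DMSO controls; the thermal stability score was transformed to a z-score; mean of n = 3 experiments.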

lipoamide = compound: NC(=O)CCCCC1CCSS1 [lipoamide]; assay: as above; conditions: HeLa, lipoamide concentration 100 µM
Protocol: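 Cellular thermal proteome profiling in HeLa cells. Cells were treated with 100 µM lipoamide for 1 h, with or without 1 mM arsenate for a further 1 h, then heated to ten temperatures (37-66.3 °C), and soluble protein was quantified by TMT mass spectrometry relative to 0.1% DMSO controls. The thermal stability score (sum of log2 fold changes minus the abundance score) was transformed to a z-score; mean of n = 3 experiments.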

[1] = arsenate co-treatment: 1 mM arsenate 1 h
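Further: each temperature applied for 3 min, abundance score taken as mean log2 fold change at the two lowest temperatures, z-score obtained by mean subtraction and division by SD.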

UniProt O75179, sequence (O75179 whole entry): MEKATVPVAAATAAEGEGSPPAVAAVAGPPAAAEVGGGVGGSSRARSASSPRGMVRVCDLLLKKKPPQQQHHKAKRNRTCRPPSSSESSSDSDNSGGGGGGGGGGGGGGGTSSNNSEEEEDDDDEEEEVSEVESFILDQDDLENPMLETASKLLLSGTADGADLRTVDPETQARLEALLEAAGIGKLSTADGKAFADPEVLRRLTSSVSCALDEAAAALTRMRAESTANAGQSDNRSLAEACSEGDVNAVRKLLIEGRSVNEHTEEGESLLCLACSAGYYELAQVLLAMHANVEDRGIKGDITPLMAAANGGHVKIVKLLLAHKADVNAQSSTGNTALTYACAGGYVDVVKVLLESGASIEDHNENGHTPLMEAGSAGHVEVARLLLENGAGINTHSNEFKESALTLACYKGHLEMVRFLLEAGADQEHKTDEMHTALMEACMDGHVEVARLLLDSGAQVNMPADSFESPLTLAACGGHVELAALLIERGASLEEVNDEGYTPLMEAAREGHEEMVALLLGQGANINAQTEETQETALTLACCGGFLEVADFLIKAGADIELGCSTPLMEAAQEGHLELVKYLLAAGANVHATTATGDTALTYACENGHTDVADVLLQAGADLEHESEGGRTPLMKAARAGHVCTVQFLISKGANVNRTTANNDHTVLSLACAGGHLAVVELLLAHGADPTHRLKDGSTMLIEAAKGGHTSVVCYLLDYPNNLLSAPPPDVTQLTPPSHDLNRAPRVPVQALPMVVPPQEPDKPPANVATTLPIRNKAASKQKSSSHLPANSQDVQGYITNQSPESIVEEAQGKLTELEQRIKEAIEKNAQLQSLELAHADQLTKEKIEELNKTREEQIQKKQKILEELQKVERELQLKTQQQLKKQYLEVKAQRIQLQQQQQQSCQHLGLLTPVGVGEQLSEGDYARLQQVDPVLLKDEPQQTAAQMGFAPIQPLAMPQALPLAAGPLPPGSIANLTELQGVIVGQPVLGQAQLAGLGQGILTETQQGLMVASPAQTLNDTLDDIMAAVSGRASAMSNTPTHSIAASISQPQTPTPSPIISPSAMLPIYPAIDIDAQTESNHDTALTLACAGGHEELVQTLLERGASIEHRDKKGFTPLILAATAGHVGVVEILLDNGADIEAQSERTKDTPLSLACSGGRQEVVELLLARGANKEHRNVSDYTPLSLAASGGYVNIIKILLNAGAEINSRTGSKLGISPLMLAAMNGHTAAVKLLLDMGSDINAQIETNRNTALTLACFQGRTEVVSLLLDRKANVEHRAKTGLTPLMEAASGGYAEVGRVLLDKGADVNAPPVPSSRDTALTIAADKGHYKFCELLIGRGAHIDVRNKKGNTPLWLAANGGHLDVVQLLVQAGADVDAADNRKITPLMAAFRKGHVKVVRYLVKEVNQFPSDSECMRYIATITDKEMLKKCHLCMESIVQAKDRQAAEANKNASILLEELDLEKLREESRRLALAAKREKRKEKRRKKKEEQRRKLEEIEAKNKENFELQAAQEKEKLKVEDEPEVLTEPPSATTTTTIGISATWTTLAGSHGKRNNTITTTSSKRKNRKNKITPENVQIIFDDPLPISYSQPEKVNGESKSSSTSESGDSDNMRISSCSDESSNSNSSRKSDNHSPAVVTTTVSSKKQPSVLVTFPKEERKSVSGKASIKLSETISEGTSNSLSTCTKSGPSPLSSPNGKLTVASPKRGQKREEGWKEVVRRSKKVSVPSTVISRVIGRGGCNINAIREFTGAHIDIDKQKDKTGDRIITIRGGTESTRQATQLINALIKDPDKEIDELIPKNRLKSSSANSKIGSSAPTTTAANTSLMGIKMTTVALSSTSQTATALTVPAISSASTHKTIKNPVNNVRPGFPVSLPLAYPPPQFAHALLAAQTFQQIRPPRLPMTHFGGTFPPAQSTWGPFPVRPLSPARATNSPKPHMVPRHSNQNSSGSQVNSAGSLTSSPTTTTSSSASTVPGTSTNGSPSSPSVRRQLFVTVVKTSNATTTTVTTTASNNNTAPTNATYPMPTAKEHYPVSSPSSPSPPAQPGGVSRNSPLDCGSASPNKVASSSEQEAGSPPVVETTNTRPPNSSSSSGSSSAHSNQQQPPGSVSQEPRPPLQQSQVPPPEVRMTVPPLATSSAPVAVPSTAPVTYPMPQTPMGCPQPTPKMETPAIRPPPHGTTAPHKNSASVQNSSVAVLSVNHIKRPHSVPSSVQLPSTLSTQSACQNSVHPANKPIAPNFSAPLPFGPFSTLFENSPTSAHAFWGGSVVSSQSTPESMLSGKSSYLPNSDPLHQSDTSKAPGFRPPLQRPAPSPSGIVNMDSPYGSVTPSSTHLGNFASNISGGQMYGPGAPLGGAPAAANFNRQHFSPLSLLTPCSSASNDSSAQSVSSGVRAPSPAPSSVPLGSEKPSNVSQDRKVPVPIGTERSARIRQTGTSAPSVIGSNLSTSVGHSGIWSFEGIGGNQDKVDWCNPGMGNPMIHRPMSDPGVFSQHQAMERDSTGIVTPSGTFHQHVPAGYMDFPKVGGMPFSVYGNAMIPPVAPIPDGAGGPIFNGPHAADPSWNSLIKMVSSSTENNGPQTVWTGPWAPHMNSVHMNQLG
UniProt Q58FF6, sequence (Q58FF6 whole entry): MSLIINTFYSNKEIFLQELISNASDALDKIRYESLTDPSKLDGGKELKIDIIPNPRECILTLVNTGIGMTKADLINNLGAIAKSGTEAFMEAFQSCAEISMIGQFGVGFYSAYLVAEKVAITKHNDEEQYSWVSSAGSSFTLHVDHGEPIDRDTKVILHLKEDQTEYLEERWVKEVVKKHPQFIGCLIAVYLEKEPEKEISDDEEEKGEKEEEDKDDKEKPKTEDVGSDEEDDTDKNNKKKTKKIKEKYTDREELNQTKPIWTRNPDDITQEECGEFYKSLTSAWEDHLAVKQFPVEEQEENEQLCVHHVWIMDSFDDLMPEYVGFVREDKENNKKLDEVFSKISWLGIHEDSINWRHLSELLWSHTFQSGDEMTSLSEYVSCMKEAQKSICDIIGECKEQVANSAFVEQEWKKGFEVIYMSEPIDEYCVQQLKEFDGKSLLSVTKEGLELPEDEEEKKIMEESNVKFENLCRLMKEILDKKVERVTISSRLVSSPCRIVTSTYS
UniProt P48147, sequence (P48147 whole entry): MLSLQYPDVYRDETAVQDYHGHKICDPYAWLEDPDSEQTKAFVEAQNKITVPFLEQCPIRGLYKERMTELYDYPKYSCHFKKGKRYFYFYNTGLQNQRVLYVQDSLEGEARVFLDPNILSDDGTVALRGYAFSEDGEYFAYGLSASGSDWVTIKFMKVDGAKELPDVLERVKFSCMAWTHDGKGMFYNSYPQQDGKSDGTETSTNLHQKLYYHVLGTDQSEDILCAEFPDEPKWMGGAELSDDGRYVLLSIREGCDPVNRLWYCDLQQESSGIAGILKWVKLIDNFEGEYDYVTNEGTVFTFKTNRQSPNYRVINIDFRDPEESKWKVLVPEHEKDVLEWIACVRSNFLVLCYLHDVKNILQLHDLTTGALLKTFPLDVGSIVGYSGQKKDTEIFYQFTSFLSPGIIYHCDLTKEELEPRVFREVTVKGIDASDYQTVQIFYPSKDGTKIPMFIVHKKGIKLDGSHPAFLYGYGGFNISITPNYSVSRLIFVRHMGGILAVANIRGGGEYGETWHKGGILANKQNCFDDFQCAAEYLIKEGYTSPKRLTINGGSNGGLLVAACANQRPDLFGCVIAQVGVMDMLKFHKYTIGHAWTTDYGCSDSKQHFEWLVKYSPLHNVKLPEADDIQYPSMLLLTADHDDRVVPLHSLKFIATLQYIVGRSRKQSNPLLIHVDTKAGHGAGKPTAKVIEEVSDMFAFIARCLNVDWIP
UniProt Q6P2C8, sequence (Q6P2C8 whole entry): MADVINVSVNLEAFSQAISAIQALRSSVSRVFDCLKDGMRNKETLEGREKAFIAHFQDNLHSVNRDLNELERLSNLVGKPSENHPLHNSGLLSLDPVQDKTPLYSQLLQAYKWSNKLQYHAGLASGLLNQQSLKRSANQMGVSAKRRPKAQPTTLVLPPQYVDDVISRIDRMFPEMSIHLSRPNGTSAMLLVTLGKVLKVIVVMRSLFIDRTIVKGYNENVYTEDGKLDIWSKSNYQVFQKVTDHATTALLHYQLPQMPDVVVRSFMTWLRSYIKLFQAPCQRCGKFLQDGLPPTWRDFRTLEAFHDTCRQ
UniProt O43464, sequence (O43464 whole entry): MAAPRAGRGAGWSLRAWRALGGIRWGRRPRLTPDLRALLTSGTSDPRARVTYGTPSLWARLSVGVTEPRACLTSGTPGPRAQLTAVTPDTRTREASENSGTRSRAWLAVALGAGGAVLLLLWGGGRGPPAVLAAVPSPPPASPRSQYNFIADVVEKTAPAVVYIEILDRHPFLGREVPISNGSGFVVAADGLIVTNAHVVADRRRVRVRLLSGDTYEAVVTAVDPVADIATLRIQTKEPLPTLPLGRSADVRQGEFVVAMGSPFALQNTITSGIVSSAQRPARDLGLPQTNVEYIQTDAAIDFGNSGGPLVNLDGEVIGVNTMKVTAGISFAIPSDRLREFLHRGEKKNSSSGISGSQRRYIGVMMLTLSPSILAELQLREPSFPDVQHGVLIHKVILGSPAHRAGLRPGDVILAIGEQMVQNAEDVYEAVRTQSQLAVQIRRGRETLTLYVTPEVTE
UniProt Q96HP4, sequence (Q96HP4 whole entry): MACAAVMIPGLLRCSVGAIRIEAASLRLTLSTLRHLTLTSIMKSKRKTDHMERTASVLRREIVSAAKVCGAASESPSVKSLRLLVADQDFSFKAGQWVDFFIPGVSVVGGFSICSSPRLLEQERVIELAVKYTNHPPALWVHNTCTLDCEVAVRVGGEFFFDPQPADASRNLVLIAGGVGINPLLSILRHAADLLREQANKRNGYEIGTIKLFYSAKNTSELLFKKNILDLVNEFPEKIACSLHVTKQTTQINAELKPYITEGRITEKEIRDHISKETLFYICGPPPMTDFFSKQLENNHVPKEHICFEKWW
UniProt P14927, sequence (P14927 whole entry): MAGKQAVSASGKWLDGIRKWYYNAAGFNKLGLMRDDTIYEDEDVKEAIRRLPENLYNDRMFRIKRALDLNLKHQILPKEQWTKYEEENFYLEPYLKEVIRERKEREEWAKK

Target	thermal stability z-score (potassium arsenate)	thermal stability z-score (lipoamide; [1])	thermal stability z-score (lipoamide; arsenate co-treatment: none)
CCND3 (UniProt P30281)	-0.0207	0.241	0.374
PLEKHA1 (UniProt Q9HB21)	-0.185	-0.0949	-0.105
ETFDH (UniProt Q16134)	-0.886	0.283	0.37
NCK1 (UniProt P16333)	-0.0139	-0.705	-0.905
EDEM1 (UniProt Q92611)	0.0795	-0.0592	-0.0491
NRF1 (UniProt Q16656)	0.311	-0.282	-0.0693
CSNK1A1 (UniProt P48729)	1.08	-0.534	-0.478
WDR45B (UniProt Q5MNZ6)	0.162	0.848	0.63
SCAF4 (UniProt O95104)	0.0697	0.0769	0.184
HTRA2 (UniProt O43464)	-0.816	-0.984	-0.617
PLOD3 (UniProt O60568)	0.333	-5.29	-4.8
UQCRB (UniProt P14927)	0.208	0.896	0.847
ANKRD17 (UniProt O75179)	-0.27	-0.568	-0.123
MED27 (UniProt Q6P2C8)	0.0267	-0.0367	0.069
OXNAD1 (UniProt Q96HP4)	-0.691	0.221	0.451
DCK (UniProt P27707)	-5	0.519	0.335
HMG20B (UniProt Q9P0W2)	0.0621	-0.211	-0.0202
MRPS34 (UniProt P82930)	0.427	-0.835	-0.044
ENGASE (UniProt Q8NFI3)	-0.36	0.198	0.101
NPC1 (UniProt O15118)	0.0121	-0.389	-0.182
PREP (UniProt P48147)	0.347	-0.299	-0.268
FAM20B (UniProt O75063)	0.335	-1.35	-1.05
CLCN3 (UniProt P51790)	-0.374	-0.368	-0.225
TTC28 (UniProt Q96AY4)	-0.0135	-0.0855	-0.0784
PAPD5 (UniProt Q8NDF8)	-0.0587	0.175	-0.0726
CCT6A (UniProt P40227)	-0.174	0.06	-0.18
EXOG (UniProt Q9Y2C4)	0.587	-0.359	-0.451
DPM1 (UniProt O60762)	0.383	0.673	0.429
PSMC6 (UniProt P62333)	-0.23	0.467	0.219
HSP90AB4P (UniProt Q58FF6)	-0.635	0.361	-0.21
